Assays:
[1] = tested on: mice treated with yeast polysaccharide; test: Elevated plus maze test (EPM), visceral pain; format: in vivo; settings: 3 mg/kg IP
Experimental: (§1) The visceral pain is induced by injecting yeast polysaccharide into the mice colony, and the yeast polysaccharide is derived from Saccharomyces cerevisiae (Sigma), wherein one kind of dextran is resident on the cell wall of the yeast and is identified as a protein-carbohydrate complex. Specifically, the mice were anesthetized after inhaling 1-3% isoflurane, and then a […] suspension of yeast polysaccharide (formulated as a 30 mg/ml solution in physiological saline) was injected into the colon of the mice by using a 24 mm long plastic feed needle within 2 minutes. The control group was injected with 0.1 ml physiological saline. The yeast polysaccharide or physiological saline was injected daily for 3 days. A visceral pain behavior test was carried out according to the Laird procedure. The number of times the mice licking the abdomen within 10 minutes was recorded, excluding other grooming behaviors, stretching of whole body, pressing the abdomen against the floor, and an 1-2-second arched posture. On day 1, 7 and 14 after the injection into the colon, an open field test was carried out from 9 am to 12 pm, and the entire test was a double-blind test. Prior to the behavioral test, the mice were acclimated for 30 minutes in an observation room. The mice were placed at the middle of a new open zone (43.2×43.2×30.5 cm^3) with micro light (<50 lux) and a fan. The movement distance, vertical count, movement count, stereotypic behavior count, and jumping count of animals were recorded within 30 minutes by means of an activity monitoring system equipped with multiple pairs of packaged light beam sets.
An anxious animal model of the prior art—the elevated plus maze test (EPM) was adopted. The mice were acclimated for 30 minutes in the room prior to the behavior observation. The EPM was composed of two open arms (250 lux) and two closed arms (350 lux) arranged opposite to each other. For each test, an individual animal was placed at the center of the test position and allowed to move freely. The test is carried out for 5 minutes. The number of entering the test position for each arm and the time spent therefore were recorded.
The EPM test tested the anxiety behavior of mice after the test treatment. The physiological saline, non-crystalline NB001 (3 mg/kg), the crystal of the present invention (3 mg/kg), and Gabapentin (30 mg/kg) as a positive control were intraperitoneally injected (IP) into the mice treated with yeast polysaccharide respectively. The behaviors of Mice were observed 28 days after the yeast polysaccharide treatment.

[2] = tested on: mice after neuropathic pain; test: Bright/dark box test, neuropathic pain; format: in vivo; settings: 3 mg/kg IP, 3 mg/kg
[3] = tested on: bone cancer pain model in rat (Walker 256 cells); test: Paw withdrawal thermal latency (PWL) in bone cancer pain model; format: in vivo, SD rats; settings: 20 mg/kg, i.g.
Experimental: 1. Animals 50 SD rats (180-220 g), placed under a quiet and warm (22° C.) environment without strong light irradiation, having free access to feed and water.
2. Cell Culture: SD Rat homologous cancer cell strains Walker 256 preserved by the Laboratory Animal Center, Forth Military Medical
University, or a commercially available product can be used. RPMI 1640 culture medium (Gibco Inc. of US, containing 100 U/ml each of 10% fetal bovine serum, penicillin, and streptomycin) was used, and the tumor cells were incubated as suspension cells in a 37° C. incubator under 5% CO2, with the medium replaced every other day, and 2 days for 1 passage. The cells were harvested at the 3rd passage, with a cell concentration of 2×10^5/10 μl.
3. Establishment of bone cancer pain model in rat: the rats were operated at the left knee with a small incision after anesthesia (40 mg/kg of pentobarbital sodium) according to sterile surgical operation procedures, the muscle was stripped off gently and the patellar ligament is cut open to expose the distal femur, with 1 mm syringe needle inserted from the intercondylar fossa vertically into the marrow cavity, with an inserting distance no more than 5 mm to prevent punching. Then a 20 μl micro-injector was inserted into the marrow cavity to slowly inject 10 μl of a suspension containing the Walker 256 cells (2×10^5 cancer cells per 10 μl). The injector was stayed there for a few minutes after the injection, and then the needle pinhole was immediately sealed with sterile bone wax. The tumor cells leaking out of the marrow cavity were killed with 75% ethyl alcohol, and then the rat was sutured under sterile conditions layer by layer. The same operation was performed in the sham operation group, except that only the same volume of sterile saline was injected into the marrow cavity slowly.
6. Drug intervention: On day 18 after the surgical operation, the SD rats of the operation group were randomized into 6 groups, i.e., respectively the model group; non-crystalline NB001 group (20 mg/kg, i.g.); the group of the crystal of the present invention (20 mg/kg, i.g.); morphine (2 mg/kg, i.p.); and gabapentin (100 mg/kg, i.g.). The new crystal form and non-crystalline form of the AC1 inhibitor NB001 were both formulated with sterile saline, and morphine and gabapentin were used as positive control drugs. All drugs were administered twice daily for 3 days, and the pain threshold was measured within 2 hours after the last administration on day 3
7. Assessment of rat pain behavior:
Paw withdrawal thermal latency (PWL): the PWL was measured by using a PL-200 thermal pain stimulator (8V, 50 W, with a strength of 100%). The time period since the time irradiating the middle portion of the planta pedis at the operation side of the rat with light till the time the rat lifted its leg to keep out of the light was TWL. To prevent tissue injury, a cut-off time of 80 s was set, each rat was measured for 3 times with an interval of 5 min, and the results were averaged.

[4] = tested on: mice treated with yeast polysaccharide; test: Visceral pain behavior test in chronic visceral pain model; format: in vivo; settings: 3 mg/kg IP
Experimental: Chronic Visceral Pain Model
as §1
The physiological saline, non-crystalline NB001 (3 mg/kg), the crystal of the present invention (3 mg/kg), and Gabapentin (30 mg/kg) as a positive control were intraperitoneally injected (IP) into the mice treated with yeast polysaccharide respectively. The behaviors of Mice were observed 28 days after the yeast polysaccharide treatment.

[5] = tested on: mice treated with yeast polysaccharide; test: Bright/dark box test, visceral pain; format: in vivo; settings: 3 mg/kg IP
Experimental: as §1
Bright/dark box test: The test procedure was carried out by using an improved method in accordance with the prior art. The device was composed of a rectangular organic glass box (44×8.5×25 cm^3), which is separated into bright and dark compartments with the equal size by using a door. A 60 watt lamp (400 lux) in turn-on state was placed at 30 cm above the box to irradiate the bright compartment. Each animal was first placed in the dark compartment for 20 seconds, and then the door leading to the bright compartment was open. The time each animal stayed in the dark compartment and the time each animal enters the bright compartment within 10 minutes were recorded.
In order to confirm the effect of the crystal of the present invention on inhibiting anxiety, mice were subjected to a bright/dark box test, and the results were as shown in Table 8. The physiological saline, non-crystalline NB001 (3 mg/kg), the crystal of the present invention (3 mg/kg), and Gabapentin (30 mg/kg) as a positive control were intraperitoneally injected (IP) into the mice treated with yeast polysaccharide respectively. The behaviors of Mice were observed 28 days after the yeast polysaccharide treatment.

`Nc1ncnc2c1ncn2CCNCCCCCO` [New NB001, 5-(((2-(6-amino)-9H-purin-9-yl)ethyl)amino)pentan-1-ol] was tested, and the “therapeutic effect in EPM test as compared with the positive control group” value ([1]; Table 7, listed as the crystal of the present invention) was “extremely significant”, the “% time in the open arm” value ([1]; Visceral pain, 3 mg/kg) was 10.3 ± 1.2 (8) % and the “% time in the open arm” value [2] was 18.5 ± 1.4 (8) %. The “analgesic effect (PWL) as compared with the model group” value ([3]; twice daily for 3 days, PWL at 2 h after last administration (21d)) was “better analgesic effect”, the “significance of the analgesic effect (PWL), FIG. 7” value ([3]; P<0.01) was “extremely significant” and the “Number of visceral pain scores” value ([4]; 28 days after yeast polysaccharide treatment) was 11.0 ± 0.7. The “therapeutic effect on chronic pain as compared with the positive control group” value ([4]; Table 6, listed as the crystal of the present invention) was “extremely significant”, the “therapeutic effect in bright/dark box test as compared with the positive control group” value ([5]; Table 8, listed as the crystal of the present invention) was “extremely significant” and the “% time in the open arm” value ([5]; Bright/dark box test, Visceral pain, 3 mg/kg) was 10.3 ± 1.2 (8) %.
